Biological target: T1, aryl hydrocarbon receptor (AhR) (Mus musculus, UniProt P30561)
T1 sequence (P30561 10-848): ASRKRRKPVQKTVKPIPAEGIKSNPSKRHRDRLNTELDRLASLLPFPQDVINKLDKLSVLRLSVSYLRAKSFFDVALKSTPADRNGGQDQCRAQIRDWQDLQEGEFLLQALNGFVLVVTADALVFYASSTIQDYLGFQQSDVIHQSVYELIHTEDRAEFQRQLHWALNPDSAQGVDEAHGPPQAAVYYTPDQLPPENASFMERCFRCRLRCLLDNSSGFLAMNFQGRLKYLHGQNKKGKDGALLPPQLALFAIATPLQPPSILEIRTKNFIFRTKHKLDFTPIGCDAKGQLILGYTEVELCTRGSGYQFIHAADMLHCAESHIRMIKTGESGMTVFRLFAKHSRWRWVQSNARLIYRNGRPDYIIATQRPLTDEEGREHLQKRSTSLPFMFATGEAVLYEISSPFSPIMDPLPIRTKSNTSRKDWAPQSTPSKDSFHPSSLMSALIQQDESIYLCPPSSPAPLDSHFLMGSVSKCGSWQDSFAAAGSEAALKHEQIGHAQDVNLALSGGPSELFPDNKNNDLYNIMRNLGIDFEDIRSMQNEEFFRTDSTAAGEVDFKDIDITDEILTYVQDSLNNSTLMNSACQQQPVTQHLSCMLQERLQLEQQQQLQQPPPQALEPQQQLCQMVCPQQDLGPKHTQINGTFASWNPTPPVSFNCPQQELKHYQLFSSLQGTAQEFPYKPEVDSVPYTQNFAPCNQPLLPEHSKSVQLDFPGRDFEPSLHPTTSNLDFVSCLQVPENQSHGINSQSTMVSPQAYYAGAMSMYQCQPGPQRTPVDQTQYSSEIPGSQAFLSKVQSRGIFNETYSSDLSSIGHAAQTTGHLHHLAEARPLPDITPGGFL
Assay: radioligand competition with [3H]TCDD
Format: binding

`Nc1ccccc1C(=O)C[C@H](N)C(=O)O` [L-kynurenine] showed a Ki of 21.6 µM.

Reference: publication PMC4098076 (Nature, 2014)
